# Results published in ChEMBL document CHEMBL4507301 (2021).
# What was measured:
# [1] = system: Tyrosine-protein kinase ABL1 (Homo sapiens), P00519 [F317L]; conditions: Compound concentration 1000.0 nM
# [2] = system: Tyrosine-protein kinase ABL1 (Homo sapiens), P00519 [H396P]; conditions: Compound concentration 1000.0 nM
# [3] = system: Tyrosine-protein kinase ABL1 (Homo sapiens), P00519 [M351T]; conditions: Compound concentration 1000.0 nM
# [4] = target: Calcium/calmodulin-dependent protein kinase type 1 (Homo sapiens) (UniProt Q14012); conditions: Compound concentration 1000.0 nM
# [5] = target: Calcium/calmodulin-dependent protein kinase type 1B (Homo sapiens) (UniProt Q6P2M8); conditions: Compound concentration 1000.0 nM
# [6] = target: Calcium/calmodulin-dependent protein kinase type 1G (Homo sapiens) (UniProt Q96NX5); conditions: Compound concentration 1000.0 nM
# Chain of Calcium/calmodulin-dependent protein kinase type 1G (Homo sapiens) (Q96NX5 whole entry): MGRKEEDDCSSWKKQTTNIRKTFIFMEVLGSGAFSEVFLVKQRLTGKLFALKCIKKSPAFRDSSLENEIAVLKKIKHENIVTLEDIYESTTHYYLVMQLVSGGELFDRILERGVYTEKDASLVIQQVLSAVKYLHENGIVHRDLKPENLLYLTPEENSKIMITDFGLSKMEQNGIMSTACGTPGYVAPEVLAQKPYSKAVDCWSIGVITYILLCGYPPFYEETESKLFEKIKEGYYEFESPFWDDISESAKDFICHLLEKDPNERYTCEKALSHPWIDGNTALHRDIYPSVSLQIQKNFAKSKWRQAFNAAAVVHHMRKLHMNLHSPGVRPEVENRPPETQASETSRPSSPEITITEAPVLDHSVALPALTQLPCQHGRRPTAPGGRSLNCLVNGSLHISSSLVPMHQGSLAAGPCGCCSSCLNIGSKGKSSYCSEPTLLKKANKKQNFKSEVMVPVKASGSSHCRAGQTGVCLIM
# [7] = target: Peripheral plasma membrane protein CASK (Homo sapiens) (UniProt O14936); conditions: Compound concentration 1000.0 nM
# [8] = target: Cyclin-dependent kinase 13 (Homo sapiens) (UniProt Q14004); conditions: Compound concentration 1000.0 nM
# [9] = target: Cyclin-dependent kinase-like 5 (Homo sapiens) (UniProt O76039); conditions: Compound concentration 1000.0 nM
# [10] = target: Dual specificity protein kinase CLK1 (Homo sapiens) (UniProt P49759); conditions: Compound concentration 1000.0 nM
# [11] = target: Serine/threonine-protein kinase DCLK1 (Homo sapiens) (UniProt O15075); conditions: Compound concentration 1000.0 nM
# [12] = target: Serine/threonine-protein kinase 17B (Homo sapiens) (UniProt O94768); conditions: Compound concentration 1000.0 nM
# [13] = target: Ephrin type-A receptor 3 (Homo sapiens) (UniProt P29320); conditions: Compound concentration 1000.0 nM
# Chain of Ephrin type-A receptor 3 (Homo sapiens) (P29320 whole entry): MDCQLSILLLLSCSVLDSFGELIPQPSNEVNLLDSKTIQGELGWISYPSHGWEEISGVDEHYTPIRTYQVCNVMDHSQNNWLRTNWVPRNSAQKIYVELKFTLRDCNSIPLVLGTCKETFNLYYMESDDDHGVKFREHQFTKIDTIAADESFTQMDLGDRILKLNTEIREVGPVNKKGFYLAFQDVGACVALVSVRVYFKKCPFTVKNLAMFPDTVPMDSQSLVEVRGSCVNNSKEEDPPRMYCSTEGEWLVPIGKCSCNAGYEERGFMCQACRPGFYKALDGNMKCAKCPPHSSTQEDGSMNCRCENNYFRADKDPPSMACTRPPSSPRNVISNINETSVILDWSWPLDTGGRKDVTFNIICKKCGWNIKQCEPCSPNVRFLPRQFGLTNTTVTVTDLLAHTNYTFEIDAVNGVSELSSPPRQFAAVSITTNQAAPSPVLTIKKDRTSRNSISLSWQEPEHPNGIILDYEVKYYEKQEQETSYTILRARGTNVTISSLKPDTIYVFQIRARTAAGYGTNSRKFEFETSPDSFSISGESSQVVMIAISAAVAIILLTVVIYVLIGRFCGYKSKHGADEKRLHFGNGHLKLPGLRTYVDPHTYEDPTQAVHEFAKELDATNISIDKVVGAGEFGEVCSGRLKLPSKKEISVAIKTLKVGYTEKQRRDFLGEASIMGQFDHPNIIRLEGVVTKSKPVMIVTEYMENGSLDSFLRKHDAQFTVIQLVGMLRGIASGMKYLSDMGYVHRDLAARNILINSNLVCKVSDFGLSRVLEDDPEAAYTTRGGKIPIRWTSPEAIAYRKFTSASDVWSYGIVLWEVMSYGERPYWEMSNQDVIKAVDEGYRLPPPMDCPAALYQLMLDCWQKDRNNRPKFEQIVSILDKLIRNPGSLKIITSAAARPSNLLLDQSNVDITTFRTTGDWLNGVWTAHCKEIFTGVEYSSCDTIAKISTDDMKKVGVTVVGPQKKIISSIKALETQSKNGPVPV
# [14] = target: Ephrin type-B receptor 4 (Homo sapiens) (UniProt P54760); conditions: Compound concentration 1000.0 nM
# [15] = target: Serine/threonine-protein kinase/endoribonuclease IRE1 (Homo sapiens) (UniProt O75460); conditions: Compound concentration 1000.0 nM
# [16] = target: Receptor-type tyrosine-protein kinase FLT3 (Homo sapiens) (UniProt P36888); conditions: Compound concentration 1000.0 nM
# [17] = target: Rhodopsin kinase GRK1 (Homo sapiens) (UniProt Q15835); conditions: Compound concentration 1000.0 nM
# [18] = target: Rhodopsin kinase GRK7 (Homo sapiens) (UniProt Q8WTQ7); conditions: Compound concentration 1000.0 nM
# [19] = target: Serine/threonine-protein kinase MARK2 (Homo sapiens) (UniProt Q7KZI7); conditions: Compound concentration 1000.0 nM
# [20] = target: Dual specificity mitogen-activated protein kinase kinase 3 (Homo sapiens) (UniProt P46734); conditions: Compound concentration 1000.0 nM
# [21] = target: Dual specificity mitogen-activated protein kinase kinase 6 (Homo sapiens) (UniProt P52564); conditions: Compound concentration 1000.0 nM
# Chain of Dual specificity mitogen-activated protein kinase kinase 6 (Homo sapiens) (P52564 whole entry): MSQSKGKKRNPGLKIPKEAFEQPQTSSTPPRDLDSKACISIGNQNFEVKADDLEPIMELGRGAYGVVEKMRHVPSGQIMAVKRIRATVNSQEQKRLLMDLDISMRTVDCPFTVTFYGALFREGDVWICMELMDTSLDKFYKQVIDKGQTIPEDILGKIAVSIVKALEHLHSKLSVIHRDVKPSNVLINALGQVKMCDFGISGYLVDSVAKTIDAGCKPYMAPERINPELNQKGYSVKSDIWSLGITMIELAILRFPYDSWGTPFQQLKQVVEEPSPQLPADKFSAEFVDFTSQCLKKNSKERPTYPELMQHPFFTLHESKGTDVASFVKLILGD
# [22] = target: Macrophage-stimulating protein receptor (Homo sapiens) (UniProt Q04912); conditions: Compound concentration 1000.0 nM
# [23] = target: Serine/threonine-protein kinase 26 (Homo sapiens) (UniProt Q9P289); conditions: Compound concentration 1000.0 nM
# [24] = target: Serine/threonine-protein kinase Nek6 (Homo sapiens) (UniProt Q9HC98); conditions: Compound concentration 1000.0 nM
# [25] = target: Serine/threonine-protein kinase Nek9 (Homo sapiens) (UniProt Q8TD19); conditions: Compound concentration 1000.0 nM
# Chain of Serine/threonine-protein kinase Nek9 (Homo sapiens) (Q8TD19 whole entry): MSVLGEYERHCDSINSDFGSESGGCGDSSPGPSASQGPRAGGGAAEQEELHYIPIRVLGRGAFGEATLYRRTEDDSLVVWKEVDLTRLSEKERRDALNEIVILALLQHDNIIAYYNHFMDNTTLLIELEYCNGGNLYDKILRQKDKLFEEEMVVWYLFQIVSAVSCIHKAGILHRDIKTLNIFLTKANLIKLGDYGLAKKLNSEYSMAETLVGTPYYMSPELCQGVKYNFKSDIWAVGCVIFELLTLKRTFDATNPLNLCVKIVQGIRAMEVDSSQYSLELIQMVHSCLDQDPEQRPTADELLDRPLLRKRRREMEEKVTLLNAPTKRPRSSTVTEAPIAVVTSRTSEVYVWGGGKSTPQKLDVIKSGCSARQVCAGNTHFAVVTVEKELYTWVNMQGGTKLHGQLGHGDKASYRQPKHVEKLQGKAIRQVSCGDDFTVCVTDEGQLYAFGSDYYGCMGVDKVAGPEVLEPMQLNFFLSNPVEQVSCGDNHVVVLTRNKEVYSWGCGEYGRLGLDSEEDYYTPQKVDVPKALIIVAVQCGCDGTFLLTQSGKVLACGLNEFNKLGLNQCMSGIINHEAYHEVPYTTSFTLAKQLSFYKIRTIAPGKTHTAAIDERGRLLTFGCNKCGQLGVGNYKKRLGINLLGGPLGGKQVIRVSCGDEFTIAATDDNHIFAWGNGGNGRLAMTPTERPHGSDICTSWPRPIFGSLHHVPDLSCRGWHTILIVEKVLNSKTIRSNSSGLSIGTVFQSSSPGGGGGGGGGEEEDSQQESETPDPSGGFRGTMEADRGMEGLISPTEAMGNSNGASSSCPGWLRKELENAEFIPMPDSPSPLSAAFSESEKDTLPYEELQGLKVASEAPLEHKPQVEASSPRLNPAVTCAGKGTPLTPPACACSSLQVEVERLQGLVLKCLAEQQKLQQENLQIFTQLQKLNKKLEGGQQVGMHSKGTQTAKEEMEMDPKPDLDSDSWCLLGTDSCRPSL
# [26] = target: Serine/threonine-protein kinase NIM1 (Homo sapiens) (UniProt Q8IY84); conditions: Compound concentration 1000.0 nM
# [27] = target: Phosphatidylinositol 4,5-bisphosphate 3-kinase catalytic subunit alpha isoform (Homo sapiens) (UniProt P42336); conditions: Compound concentration 1000.0 nM
# Chain of Phosphatidylinositol 4,5-bisphosphate 3-kinase catalytic subunit alpha isoform (Homo sapiens) (P42336 whole entry, canonical isoform): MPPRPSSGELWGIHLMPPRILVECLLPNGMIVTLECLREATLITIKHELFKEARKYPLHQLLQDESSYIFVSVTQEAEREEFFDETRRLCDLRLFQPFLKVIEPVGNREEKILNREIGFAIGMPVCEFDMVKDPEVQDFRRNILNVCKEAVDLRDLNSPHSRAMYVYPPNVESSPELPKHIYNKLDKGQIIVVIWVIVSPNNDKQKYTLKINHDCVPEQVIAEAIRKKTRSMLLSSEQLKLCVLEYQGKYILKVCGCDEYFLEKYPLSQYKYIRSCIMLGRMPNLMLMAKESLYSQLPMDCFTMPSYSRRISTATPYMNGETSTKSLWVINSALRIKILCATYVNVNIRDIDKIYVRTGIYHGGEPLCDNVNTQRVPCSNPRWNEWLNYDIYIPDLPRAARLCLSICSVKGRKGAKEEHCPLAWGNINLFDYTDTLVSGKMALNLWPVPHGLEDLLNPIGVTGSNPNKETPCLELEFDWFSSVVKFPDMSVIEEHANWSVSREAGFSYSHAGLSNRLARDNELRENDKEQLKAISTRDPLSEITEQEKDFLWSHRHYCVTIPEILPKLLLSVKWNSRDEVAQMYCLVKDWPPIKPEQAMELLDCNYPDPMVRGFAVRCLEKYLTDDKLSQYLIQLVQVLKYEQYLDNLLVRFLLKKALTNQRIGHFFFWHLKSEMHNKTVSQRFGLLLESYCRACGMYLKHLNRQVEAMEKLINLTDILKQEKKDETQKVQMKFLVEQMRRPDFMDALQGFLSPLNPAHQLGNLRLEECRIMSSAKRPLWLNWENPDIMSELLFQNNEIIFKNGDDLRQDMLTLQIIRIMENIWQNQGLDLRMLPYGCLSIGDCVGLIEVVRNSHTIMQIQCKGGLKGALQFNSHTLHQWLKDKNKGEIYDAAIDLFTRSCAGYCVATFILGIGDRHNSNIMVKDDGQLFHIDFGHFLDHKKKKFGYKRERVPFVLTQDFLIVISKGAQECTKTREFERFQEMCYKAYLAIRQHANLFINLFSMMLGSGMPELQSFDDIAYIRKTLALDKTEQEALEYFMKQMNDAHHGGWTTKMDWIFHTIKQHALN
# [28] = target: Serine/threonine-protein kinase PLK3 (Homo sapiens) (UniProt Q9H4B4); conditions: Compound concentration 1000.0 nM
# [29] = target: Ribosomal protein S6 kinase alpha-5 (Homo sapiens) (UniProt O75582); conditions: Compound concentration 1000.0 nM
# [30] = target: Ribosomal protein S6 kinase alpha-1 (Homo sapiens) (UniProt Q15418); conditions: Compound concentration 1000.0 nM
# Chain of Ribosomal protein S6 kinase alpha-1 (Homo sapiens) (Q15418 whole entry): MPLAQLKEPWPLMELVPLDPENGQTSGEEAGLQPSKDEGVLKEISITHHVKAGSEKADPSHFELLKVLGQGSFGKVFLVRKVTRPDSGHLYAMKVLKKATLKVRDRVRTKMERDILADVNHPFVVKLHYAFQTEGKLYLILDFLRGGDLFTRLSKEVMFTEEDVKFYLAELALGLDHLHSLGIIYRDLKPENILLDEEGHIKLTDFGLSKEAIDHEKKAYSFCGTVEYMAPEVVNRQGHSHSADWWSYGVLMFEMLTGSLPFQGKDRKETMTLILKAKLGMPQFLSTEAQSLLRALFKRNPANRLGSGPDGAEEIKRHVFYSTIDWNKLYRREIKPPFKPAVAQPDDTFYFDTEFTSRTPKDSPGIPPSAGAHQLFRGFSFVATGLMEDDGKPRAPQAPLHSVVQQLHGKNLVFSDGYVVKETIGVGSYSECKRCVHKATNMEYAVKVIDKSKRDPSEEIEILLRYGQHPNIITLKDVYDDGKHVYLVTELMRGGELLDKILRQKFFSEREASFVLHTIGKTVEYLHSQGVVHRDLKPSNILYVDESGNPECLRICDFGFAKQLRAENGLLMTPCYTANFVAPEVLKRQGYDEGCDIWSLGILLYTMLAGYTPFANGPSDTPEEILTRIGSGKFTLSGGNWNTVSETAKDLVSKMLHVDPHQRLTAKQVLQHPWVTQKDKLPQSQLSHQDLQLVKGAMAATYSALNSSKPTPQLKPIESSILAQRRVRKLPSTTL
# [31] = target: Serine/threonine-protein kinase Sgk1 (Homo sapiens) (UniProt O00141); conditions: Compound concentration 1000.0 nM
# Chain of Serine/threonine-protein kinase Sgk1 (Homo sapiens) (O00141 whole entry): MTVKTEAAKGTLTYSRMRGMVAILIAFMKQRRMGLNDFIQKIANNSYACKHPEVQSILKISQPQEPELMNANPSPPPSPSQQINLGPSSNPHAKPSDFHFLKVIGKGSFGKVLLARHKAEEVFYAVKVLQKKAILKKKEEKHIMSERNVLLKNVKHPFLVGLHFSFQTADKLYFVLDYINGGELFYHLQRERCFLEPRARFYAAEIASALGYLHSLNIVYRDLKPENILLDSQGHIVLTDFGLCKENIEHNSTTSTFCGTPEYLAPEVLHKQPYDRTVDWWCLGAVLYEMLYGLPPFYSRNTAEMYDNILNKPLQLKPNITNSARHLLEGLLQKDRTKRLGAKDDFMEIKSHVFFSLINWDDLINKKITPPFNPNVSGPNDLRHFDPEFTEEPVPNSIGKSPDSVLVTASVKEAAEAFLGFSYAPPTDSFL
# [32] = target: Uncharacterized serine/threonine-protein kinase SBK3 (Homo sapiens) (UniProt P0C264); conditions: Compound concentration 1000.0 nM
# [33] = target: STE20-like serine/threonine-protein kinase (Homo sapiens) (UniProt Q9H2G2); conditions: Compound concentration 1000.0 nM
# [34] = target: Serine/threonine-protein kinase 33 (Homo sapiens) (UniProt Q9BYT3); conditions: Compound concentration 1000.0 nM
# [35] = target: Tyrosine-protein kinase Tec (Homo sapiens) (UniProt P42680); conditions: Compound concentration 1000.0 nM
# [36] = target: Tyrosine-protein kinase receptor Tie-1 (Homo sapiens) (UniProt P35590); conditions: Compound concentration 1000.0 nM
# [37] = target: Serine/threonine-protein kinase tousled-like 2 (Homo sapiens) (UniProt Q86UE8); conditions: Compound concentration 1000.0 nM
# [38] = target: TRAF2 and NCK-interacting protein kinase (Homo sapiens) (UniProt Q9UKE5); conditions: Compound concentration 1000.0 nM
# [39] = target: Serine/threonine-protein kinase TNNI3K (Homo sapiens) (UniProt Q59H18); conditions: Compound concentration 1000.0 nM
# [40] = target: Testis-specific serine/threonine-protein kinase 3 (Homo sapiens) (UniProt Q96PN8); conditions: Compound concentration 1000.0 nM
# [41] = target: Non-receptor tyrosine-protein kinase TYK2 (Homo sapiens) (UniProt P29597); conditions: Compound concentration 1000.0 nM
# [42] = target: Serine/threonine-protein kinase ULK1 (Homo sapiens) (UniProt O75385); conditions: Compound concentration 1000.0 nM
# [43] = target: 5-hydroxytryptamine receptor 7 (Homo sapiens) (UniProt P34969); conditions: Compound concentration 10.0 uM
# [44] = target: Sodium-dependent noradrenaline transporter (Homo sapiens) (UniProt P23975); conditions: Compound concentration 10.0 uM
# [45] = target: Histamine H2 receptor (Homo sapiens) (UniProt P25021); conditions: Compound concentration 10.0 uM
smiles,measurement,setting,value
C[C@H](c1cccc(C#N)c1)n1cc(Cl)cc(C(N)=O)c1=N [(R)-9s],residual activity,[1],83%
same,residual activity,[2],55%
same,residual activity,[3],100%
same,residual activity,[4],100%
same,residual activity,[5],89%
same,residual activity,[6],100%
same,residual activity,[7],82%
same,residual activity,[8],100%
same,residual activity,[9],73%
same,residual activity,[10],100%
same,residual activity,[11],76%
same,residual activity,[12],73%
same,residual activity,[13],100%
same,residual activity,[14],89%
same,residual activity,[15],69%
same,residual activity,[16],95%
same,residual activity,[17],74%
same,residual activity,[18],85%
same,residual activity,[19],100%
same,residual activity,[20],73%
same,residual activity,[21],100%
same,residual activity,[22],100%
same,residual activity,[23],88%
same,residual activity,[24],94%
same,residual activity,[25],79%
same,residual activity,[26],84%
same,residual activity,[27],92%
same,residual activity,[28],83%
same,residual activity,[29],68%
same,residual activity,[30],97%
same,residual activity,[31],77%
same,residual activity,[32],95%
same,residual activity,[33],100%
same,residual activity,[34],92%
same,residual activity,[35],100%
same,residual activity,[36],100%
same,residual activity,[37],100%
same,residual activity,[38],100%
same,residual activity,[39],92%
same,residual activity,[40],100%
same,residual activity,[41],100%
same,residual activity,[42],78%
same,inhibition,[43],-7.43%
same,inhibition,[44],-7.01%
same,inhibition,[45],10.8%
C[C@@H](c1cccc(C#N)c1)n1cc(Cl)cc(C(N)=O)c1=N [(S)-9s],residual activity,[1],0%
same,residual activity,[2],54%
same,residual activity,[3],0%
same,residual activity,[4],100%
same,residual activity,[5],88%
same,residual activity,[6],100%
same,residual activity,[7],79%
same,residual activity,[8],100%
same,residual activity,[9],89%
same,residual activity,[10],100%
same,residual activity,[11],98%
same,residual activity,[12],72%
same,residual activity,[13],92%
same,residual activity,[14],96%
same,residual activity,[15],76%
same,residual activity,[16],100%
same,residual activity,[17],75%
same,residual activity,[18],82%
same,residual activity,[19],100%
same,residual activity,[20],67%
same,residual activity,[21],100%
same,residual activity,[22],100%
same,residual activity,[23],68%
same,residual activity,[24],79%
same,residual activity,[25],97%
same,residual activity,[26],97%
same,residual activity,[27],100%
same,residual activity,[28],89%
same,residual activity,[29],74%
same,residual activity,[30],100%
same,residual activity,[31],100%
same,residual activity,[32],95%
same,residual activity,[33],88%
same,residual activity,[34],100%
same,residual activity,[35],88%
same,residual activity,[36],87%
same,residual activity,[37],100%
same,residual activity,[38],56%
same,residual activity,[39],100%
same,residual activity,[40],100%
same,residual activity,[41],100%
same,residual activity,[42],72%
same,inhibition,[43],4.17%
same,inhibition,[44],-4.73%
same,inhibition,[45],8.25%
